The target of one assay is T1, B-Raf kinase (Homo sapiens, UniProt P15056).
T1 construct: GST (N); purchased Sigma
The assay can be described thus: Biochemical assay for B-Raf.1 (coupled pyruvate kinase/lactate dehydrogenase). As to conditions: read-out: BRAF.1 IC50. A digest of the protocol: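 Reaction rates over the 4–5 h window of a continuous 6 h, 30 °C read were converted to percent inhibition and fitted for IC50. B-Raf (0.13 nM) phosphorylated 30.1 nM MEK with 1 mM ATP; ADP coupled via PK/LDH to NADH loss at 340 nm, 1% DMSO final.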

The target of a further assay is T2, C-Raf kinase (Homo sapiens, UniProt P04049, Y340D/Y341D).
T2 construct: Y340D,; GST (N); purchased Sigma
T2 sequence (P04049 307-648 Y340D/Y341D): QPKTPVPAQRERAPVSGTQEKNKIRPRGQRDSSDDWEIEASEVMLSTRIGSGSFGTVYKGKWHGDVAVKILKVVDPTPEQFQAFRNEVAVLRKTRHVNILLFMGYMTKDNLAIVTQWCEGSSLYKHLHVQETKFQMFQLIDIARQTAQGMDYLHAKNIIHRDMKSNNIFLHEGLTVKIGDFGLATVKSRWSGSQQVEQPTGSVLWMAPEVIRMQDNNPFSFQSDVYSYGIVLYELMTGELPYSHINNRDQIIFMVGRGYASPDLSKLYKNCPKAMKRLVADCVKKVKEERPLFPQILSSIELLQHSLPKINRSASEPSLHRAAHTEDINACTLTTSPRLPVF
The assay can be described thus: Biochemical assay for C-Raf.1 (coupled pyruvate kinase/lactate dehydrogenase). As to conditions: read-out: CRAF.1 IC50. Put shortly: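 NADH depletion at 340 nm monitored continuously for 6 h at 30° C, with rates taken over 4–5 h. The coupled pyruvate kinase/lactate dehydrogenase reaction used 1 mM ATP, 30.1 nM MEK substrate and 0.43 nM kinase at pH 7.5. IC50 was fitted sigmoidally from percent inhibition of serially diluted compound.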

For another assay, the system named is WM3928 cells. The assay can be described thus: WM3928 cell proliferation assay (1), resazurin, 96-well. The format is cell-based. The note with it: inhibition of cell proliferation. As for the experimental part:
WM3928 Cell Proliferation Assay (1)
WM3928 cells (#WM3928-01-0001) are obtained from Rockland Immunochemicals Inc (Gilbertsville, PA). Briefly, cells were grown in MCDB 153 medium (Sigma, #M7403, St. Louis, MO) supplemented with 20% Leibovitz's L-15 (ThermoFisher #11415-064, Waltham, MA), 2% heat inactivated fetal bovine serum (ThermoFisher, #A3840001, Waltham, MA), 5 μg/mL Insulin (Bovine Pancreas) (Sigma, #I0516, St. Louis, MO), 1.68 mM Calcium Chloride (Sigma, #C-34006, St. Louis, MO) and 1% Penicillin/Streptomycin/L-Glutamine (ThermoFisher #10378016, Waltham, MA) at 37° C., 5% CO2, and 95% humidity. Cells are expanded until reaching 70-95% confluency at which point they are subcultured or harvested for assay use. A serial dilution of test compound is dispensed into a 96-well black clear bottom plate in triplicate. Three thousand cells are added per well in 200 μL complete growth medium in the 96-well plate. Plates are incubated for 67-72 hours at 37° C., 5% CO2, and 95% humidity. At the end of the incubation, 40 μL of a 440 μM solution of resazurin (Sigma, #199303, St. Louis, MO) in PBS is added to each well of the plate and plates are incubated for an additional 6-7 hours at 37° C., 5% CO2, and 95% humidity. Plates are read on a Synergy2 or equivalent reader (Biotek, Winooski VT) using an excitation of 540 nm and an emission of 600 nm. Data is analyzed using Prism software (GraphPad, San Diego, CA) to calculate IC50 values.
Background: The colour change of resazurin is a common sign of viable cells or microbes.

Another assay relates to Miapaca-2 cells. The assay can be described thus: MiaPaca-2 cell proliferation assay (1), resazurin, 96-well. Format: cell-based. As to conditions: Homo sapiens, MIA PaCa-2, inhibition of cell proliferation. The procedure:
MiaPaca-2 Cell Proliferation Assay (1)
Miapaca-2 cells (catalog #CRL-1420) are obtained from the American Type Culture Collect (ATTC, Manassas, VA). Briefly, cells were grown in DMEM supplemented with 10% characterized fetal bovine serum (Invitrogen, Carlsbad, CA), 2.5% New Zealand sourced horse serum and 1% Penicillin/Streptomycin/L-Glutamine at 37° C., 5% CO2, and 95% humidity. Cells are expanded until reaching 70-95% confluency at which point they are subcultured or harvested for assay use. A serial dilution of test compound is dispensed into a 96-well black clear bottom plate in triplicate. Three thousand cells are added per well in 200 μL complete growth medium in the 96-well plate. Plates are incubated for 67-72 hours at 37° C., 5% CO2, and 95% humidity. At the end of the incubation, 40 μL of a 440 μM solution of resazurin (Sigma, St. Louis, MO) in PBS is added to each well of the plate and plates are incubated for an additional 5-6 hours at 37° C., 5% CO2, and 95% humidity. Plates are read on a Synergy2 or equivalent reader (Biotek, Winooski VT) using an excitation of 540 nm and an emission of 600 nm. Data is analyzed using Prism software (GraphPad, San Diego, CA) to calculate IC50 values.

T1 sequence (P15056 416-766): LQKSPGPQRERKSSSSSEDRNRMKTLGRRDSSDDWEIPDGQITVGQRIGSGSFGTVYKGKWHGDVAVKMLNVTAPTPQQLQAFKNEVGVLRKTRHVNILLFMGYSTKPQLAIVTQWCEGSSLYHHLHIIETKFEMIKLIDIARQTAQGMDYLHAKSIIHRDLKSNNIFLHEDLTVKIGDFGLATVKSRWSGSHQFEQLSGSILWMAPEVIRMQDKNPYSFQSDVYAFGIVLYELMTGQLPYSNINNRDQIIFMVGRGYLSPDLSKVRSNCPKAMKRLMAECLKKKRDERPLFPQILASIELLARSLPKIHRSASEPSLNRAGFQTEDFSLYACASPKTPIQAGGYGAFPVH

What is called IC50 is the midpoint of a concentration-inhibition curve. In the case of `Cc1cc(F)c(NC(=O)NCCC(C)(C)F)cc1-c1cc(OCCO)nc(-c2ccnc3[nH]ccc23)c1` [Example 97], the IC50 at B-Raf kinase is not above 100 nM; at C-Raf kinase it was not above 100 nM; in the assay with WM3928 cells, 100 to 500 nM; in the assay on Miapaca-2 cells it was 1 to 10 µM.
Regarding `COC(=O)Nc1cc(-c2cccc(-c3cc(NC(=O)NCCC4(C)CC4)cnc3C)c2)ncn1` [Example 170], the figures for the IC50 at B-Raf kinase, on C-Raf kinase and in the assay on WM3928 cells were not above 100 nM, not above 100 nM and 100 to 500 nM, respectively.
Turning to `Cc1ncc(NC(=O)NCCC2(C)CC2)cc1-c1cc(OCCO)nc(-c2ccnc(NC(=O)C3CC3)c2)c1` [Example 113], the IC50 at B-Raf kinase is not above 100 nM; at C-Raf kinase it was not above 100 nM; in the assay with WM3928 cells it was not above 100 nM; in the assay on Miapaca-2 cells it was 1 to 10 µM.
Consider `Cc1ncc(NC(=O)NCCC2(C)CC2)cc1-c1cc(OCCO)nc(-c2ccnc3c2CC(=O)N3)c1` [Example 112], for which the IC50 is not above 100 nM at B-Raf kinase, not above 100 nM at C-Raf kinase, 1000 to 10000 nM in the assay with WM3928 cells and 1 to 10 µM in the assay with Miapaca-2 cells.
For the molecule `Cc1ncc(NC(=O)NC[C@H](O)C(C)(C)C)cc1-c1ccnc(-c2ccnc(NC(=O)C3CC3)c2)c1` [Example 102], the IC50 on B-Raf kinase is not above 100 nM; at C-Raf kinase, not above 100 nM; in the assay on WM3928 cells, 1000 to 10000 nM; in the assay with Miapaca-2 cells, 1 to 10 µM.
`COC(=O)Nc1cc(-c2nc(OCCO)cc(-c3cc(NC(=O)NC4CC(C)(C)C4)c(F)cc3C)n2)ccn1` [Example 158]: the IC50 on B-Raf kinase was not above 100 nM; on C-Raf kinase it was not above 100 nM; in the assay on WM3928 cells, not above 100 nM; with Miapaca-2 cells, 1 to 10 µM.
As to `Cc1cc(F)c(NC(=O)NCC(C)C)cc1-c1cc(OCCO)nc(-c2ccnc(NC(=O)C3CC3)c2)c1` [Example 99], the IC50 at B-Raf kinase was not above 100 nM; on C-Raf kinase, not above 100 nM; in the assay with WM3928 cells, 100 to 500 nM; in the assay on Miapaca-2 cells it was 1 to 10 µM.
Take `Cc1cc(F)c(NC(=O)NCCC(F)F)cc1-c1cc(OCCO)nc(-c2ccnc(NC(=O)C3CC3)c2)c1` [Example 105]: the IC50 was not above 100 nM at B-Raf kinase, not above 100 nM on C-Raf kinase, 500 to 1000 nM in the assay with WM3928 cells and 1 to 10 µM in the assay with Miapaca-2 cells.
With `CNC(=O)c1cc(-c2cnnc(-c3cc(NC(=O)NCCC(C)(C)C)c(F)cc3C)c2)ccn1` [Example 119], the IC50 lay in the range of 100 to 500 nM on B-Raf kinase, 100 to 500 nM on C-Raf kinase, 1000 to 10000 nM in the assay on WM3928 cells and 1 to 10 µM in the assay on Miapaca-2 cells.
On to `COC[C@H]1CCN(C(=O)Nc2cc(-c3cc(-c4ccnc(NC(=O)OC)c4)cnn3)c(C)cc2F)C1` [Example 148], for which the IC50 at B-Raf kinase was 500 to 1000 nM; at C-Raf kinase, 500 to 1000 nM; with Miapaca-2 cells, 1 to 10 µM.
In the case of `COC(=O)Nc1cc(-c2cc(-c3cc(NC(=O)NCCC4(C)CC4)cnc3C)ccn2)ccn1` [Example 103], the IC50 at B-Raf kinase was not above 100 nM; on C-Raf kinase, not above 100 nM; in the assay with WM3928 cells, 500 to 1000 nM; with Miapaca-2 cells, 1 to 10 µM.
In the case of `COC(=O)Nc1cc(-c2cnnc(-c3cc(NC(=O)N4CCC(CC(F)(F)F)C4)c(F)cc3C)c2)ccn1` (stereo not shown) [Example 150], the figures for the IC50 at B-Raf kinase, at C-Raf kinase and with WM3928 cells were not above 100 nM, not above 100 nM and 1000 to 10000 nM, respectively.
Regarding `Cc1cc(F)c(NC(=O)NCCC(C)(C)F)cc1-c1cc(OCCO)nc(-c2ccnc3[nH]ncc23)c1` [Example 94], the IC50 is not above 100 nM at B-Raf kinase, not above 100 nM on C-Raf kinase, 100 to 500 nM with WM3928 cells and 1 to 10 µM with Miapaca-2 cells.
Consider `COC(=O)Nc1cc(-c2nc(OCCO)cc(-c3cc(NC(=O)NCCC(C)(C)F)c(F)cc3C)n2)ccn1` [Example 161], for which the IC50 at B-Raf kinase, at C-Raf kinase and in the assay with WM3928 cells was not above 100 nM in each case.
On to `COC(=O)Nc1cc(-c2cc(-c3cc(NC(=O)NCCC(C)(C)F)cnc3C)cc(OCCO)n2)ccn1` [Example 165], for which the IC50 was not above 100 nM at B-Raf kinase, not above 100 nM at C-Raf kinase and 1000 to 10000 nM with WM3928 cells.
On to `Cc1cc(F)c(NC(=O)NCCC(C)(C)C)cc1-c1cc(-c2ccnc(NC(=O)C3CC3)c2)cnn1` [Example 131], for which the IC50 at B-Raf kinase is not above 100 nM; on C-Raf kinase, not above 100 nM; in the assay with Miapaca-2 cells it was 1 to 10 µM.
Take `Cc1cc(F)c(NC(=O)NCCC(C)(C)C)cc1-c1cc(N2CCOCC2)nc(N2CCOCC2)c1` [Example 10]: the values for the IC50 at B-Raf kinase, on C-Raf kinase and in the assay with WM3928 cells were not above 100 nM, not above 100 nM and 100 to 500 nM, respectively.
On to `COC1(CCNC(=O)Nc2cc(-c3ccnc(-c4ccnc(NC(=O)C5CC5)c4)n3)c(C)cc2F)CC1` [Example 117], for which the IC50 at B-Raf kinase is not above 100 nM; on C-Raf kinase it was not above 100 nM; in the assay with Miapaca-2 cells, 1 to 10 µM.
With `COC(=O)Nc1cc(-c2cc(-c3cc(NC(=O)NC4CC(C)(C)C4)cnc3C)cc(OCCO)n2)ccn1` [Example 156], the half-maximal inhibitory concentration (IC50) at B-Raf kinase is not above 100 nM; at C-Raf kinase, not above 100 nM; with WM3928 cells, 100 to 500 nM.
On to `Cc1ncc(NC(=O)NCCC2(C)CC2)cc1-c1cc(OCCO)nc(-c2ccnc(NC(=O)C3CC3)c2)n1` [Example 133], for which the IC50 is not above 100 nM on B-Raf kinase, not above 100 nM at C-Raf kinase and 1 to 10 µM in the assay on Miapaca-2 cells.
In the case of `COC(C)(C)CCNC(=O)Nc1cnc(C)c(-c2cc(-c3ccnc(NC(=O)C4CC4)c3)cnn2)c1` [Example 121], the IC50 at B-Raf kinase was 100 to 500 nM; on C-Raf kinase, not above 100 nM; in the assay with Miapaca-2 cells, 1 to 10 µM.
Regarding `COC(=O)Nc1cc(-c2cnnc(-c3cc(NC(=O)NCCC(C)(C)OC)c(F)cc3C)c2)ccn1` [Example 140], the results for the IC50 at B-Raf kinase, at C-Raf kinase and with Miapaca-2 cells were 100 to 500 nM, 100 to 500 nM and 1 to 10 µM, respectively.
Consider `Cc1ncc(NC(=O)NCCC2(C)CC2)cc1-c1ccnc(-c2ccnc(NC(=O)C3CC3)c2)c1` [Example 118], for which the IC50 was not above 100 nM on B-Raf kinase, not above 100 nM on C-Raf kinase and 1 to 10 µM in the assay with Miapaca-2 cells.
As to `COC(=O)Nc1cc(-c2nccc(-c3cc(NC(=O)NCCC4(OC)CC4)c(F)cc3C)n2)ccn1` [Example 146], the IC50 was not above 100 nM on B-Raf kinase, not above 100 nM on C-Raf kinase and 1 to 10 µM in the assay with Miapaca-2 cells.
Take `COC(=O)Nc1cc(-c2nccc(-c3cc(NC(=O)NCCC4(OC)CC4)cnc3C)n2)ccn1` [Example 143]: the IC50 fell in the range of 500 to 1000 nM at B-Raf kinase, 100 to 500 nM at C-Raf kinase and 1 to 10 µM in the assay on Miapaca-2 cells.
The matching figures for `COC(=O)Nc1cc(-c2cnnc(-c3cc(NC(=O)NCCC(C)(C)F)c(F)cc3C)c2)ccn1` [Example 141]: not above 100 nM, not above 100 nM and 1 to 10 µM.
For the molecule `Cc1ccc(NC(=O)NCCC(C)(C)C)cc1-c1cc(N2CCOCC2)nc(N2CCOCC2)c1` [Example 4], the IC50 on B-Raf kinase was not above 100 nM; on C-Raf kinase, not above 100 nM; with Miapaca-2 cells, 1 to 10 µM.
With `COC(=O)Nc1cc(-c2cc(-c3cc(NC(=O)NCCC4(OC)CC4)c(F)cc3C)ccn2)ccn1` [Example 145], the IC50 at B-Raf kinase is not above 100 nM; at C-Raf kinase, not above 100 nM; with Miapaca-2 cells, 1 to 10 µM.
For the molecule `CNC(=O)c1cc(-c2cnnc(-c3cc(NC(=O)NCCC(C)(C)OC)c(F)cc3C)c2)ccn1` [Example 123], the concentration for half-maximal inhibition (IC50) is more than 1000 nM at B-Raf kinase, 500 to 1000 nM on C-Raf kinase and 1 to 10 µM in the assay with Miapaca-2 cells.
The matching figures for `COC(=O)Nc1cc(-c2nccc(-c3cc(NC(=O)NCCC(C)(C)F)c(F)cc3C)n2)ccn1` [Example 147]: not above 100 nM, not above 100 nM and 1 to 10 µM.
